One block for each compound: values may come before it.
Legend:
[1] = Cytotoxicity against human MKN45 cells after 72 hrs by MTT assay; conditions: MKN-45, 72 h
MDA-MB-231 = assay: Cytotoxicity against human MDA-MB-231 cells after 72 hrs by MTT assay; assay type: functional, cell-based; conditions: MDA-MB-231, 72 h
PBL = assay: Cytotoxicity against human PBL cells after 72 hrs by MTT assay; assay type: cell-based
HT-29 [2] = assay: Cytotoxicity against human HT-29 cells after 72 hrs by MTT assay; conditions: HT-29, 72 h
A549 = assay: Cytotoxicity against human A549 cells after 72 hrs by MTT assay; assay type: functional, cell-based; conditions: A549, 72 h
Mus musculus [3] = assay: Cmax in mouse at 35 mg/kg, po administered as single dose measured at 0.25 to 24 hrs by LC/MS/MS analysis; assay type: ADME, organism-based; set-up: dose 35 mg/kg, route oral; conditions: in vivo
Mus musculus [4] = assay: Tmax in mouse at 35 mg/kg, po administered as single dose by LC/MS/MS analysis; assay type: ADME, organism-based; conditions: in vivo
Mus musculus [5] = assay: AUC (0 to infinity) in mouse at 20 mg/kg, iv or 35 mg/kg, po administered as single dose by LC/MS/MS analysis; assay type: ADME, organism-based; conditions: in vivo
[6] = Apparent volume of distribution during terminal phase in mouse at 35 mg/kg, po administered as single dose measured at 0.25 to 24 hrs by LC/MS/MS analysis; assay type: ADME, organism-based; conditions: in vivo, read-out: Vz/F
[7] = Mean residence time (0 to infinity) in mouse at 20 mg/kg, iv or 35 mg/kg, po administered as single dose by LC/MS/MS analysis; assay type: ADME, organism-based; conditions: in vivo
Mus musculus [8] = assay: Half life in mouse at 20 mg/kg, iv or 35 mg/kg, po administered as single dose by LC/MS/MS analysis; assay type: ADME, organism-based; conditions: in vivo
Mus musculus [9] = assay: Toxicity in Balb/c mouse xenografted with human HT-29 cells assessed as change in body weight at 50 mg/kg, po bid for 27 days; assay type: organism-based; conditions: in vivo, 648 h
HT-29 [10] = assay: Antitumor activity against human HT-29 cells xenografted in Balb/c mouse assessed as tumor growth inhibition at 50 mg/kg, po bid for 27 days relative to control; assay type: functional; set-up: scale not given: the % may be the effect or the level left
[11] = Antitumor activity against human MKN45 cells xenografted in Balb/c mouse assessed as tumor growth inhibition at 50 mg/kg, po bid for 24 days relative to control; assay type: functional, MKN-45; set-up: scale not given: the % may be the effect or the level left
Mus musculus [12] = assay: Toxicity in Balb/c mouse xenografted with human MKN45 cells assessed as change in body weight at 50 mg/kg, po bid for 24 days; assay type: organism-based, MKN-45; conditions: in vivo, 576 h

Structure (SMILES): COc1ccc(/C=N/NC(=O)Nc2ccc(Oc3ccnc4cc(OCCCN5CCOCC5)c(OC)cc34)c(F)c2)cc1
IC50 [1]: 770 nM | IC50 (MDA-MB-231): 1900 nM | IC50 (PBL): 17200 nM | IC50 (HT-29 [2]): 900 nM

Structure (SMILES): COc1cc2c(Oc3ccc(NC(=O)N/N=C/c4ccc(C(F)(F)F)cc4)cc3F)ccnc2cc1OCCCN1CCCCC1
IC50 (A549): 660 nM | IC50 [1]: 630 nM | IC50 (MDA-MB-231): 1100 nM | IC50 (HT-29 [2]): 660 nM

Structure (SMILES): COc1ccc(/C=N/NC(=O)Nc2ccc(Oc3ccnc4cc(OCCCN5CCCCC5)c(OC)cc34)c(F)c2)cc1
IC50 (A549): 540 nM | IC50 [1]: 660 nM | IC50 (MDA-MB-231): 840 nM | IC50 (PBL): 126000 nM | IC50 (HT-29 [2]): 590 nM

Structure (SMILES): COc1cc2c(Oc3ccc(NC(=O)N/N=C/c4cccs4)cc3F)ccnc2cc1OCCCN1CCCCC1
IC50 (A549): 790 nM | IC50 [1]: 740 nM | IC50 (MDA-MB-231): 1260 nM | IC50 (PBL): 68700 nM | IC50 (HT-29 [2]): 770 nM

Structure (SMILES): COc1cc2c(Oc3ccc(NC(=O)N/N=C/c4ccc(O)cc4)cc3F)ccnc2cc1OCCCN1CCCCC1
IC50 (A549): 780 nM | IC50 [1]: 850 nM | IC50 (MDA-MB-231): 790 nM | IC50 (HT-29 [2]): 470 nM

Structure (SMILES): COc1ccc(/C=N/NC(=O)Nc2ccc(Oc3ccnc4cc(OCCCN5CCCC5)c(OC)cc34)c(F)c2)cc1
IC50 (A549): 680 nM | IC50 [1]: 750 nM | IC50 (MDA-MB-231): 1300 nM | IC50 (PBL): 26500 nM | IC50 (HT-29 [2]): 690 nM

Structure (SMILES): COc1cc2c(Oc3ccc(/C=N/NC(=O)Nc4ccc(Br)cc4)cc3F)ccnc2cc1OCCCN1CCCCC1
IC50 [1]: 60 nM | IC50 (MDA-MB-231): 800 nM | IC50 (HT-29 [2]): 270 nM

Structure (SMILES): COc1ccc(/C=N/NC(=O)Nc2ccc(Oc3ccnc4cc(OCCCN5CCCCC5)c(OC)cc34)c(F)c2)c(OC)c1
IC50 (A549): 1400 nM | IC50 [1]: 1990 nM | IC50 (HT-29 [2]): 1600 nM

Structure (SMILES): COc1cc2c(Oc3ccc(NC(=O)N/N=C/c4cc5ccccc5[nH]4)cc3F)ccnc2cc1OCCCN1CCCCC1
IC50 (A549): 780 nM | IC50 [1]: 830 nM | IC50 (MDA-MB-231): 980 nM | IC50 (HT-29 [2]): 820 nM

Structure (SMILES): COc1cc2c(Oc3ccc(NC(=O)N/N=C/c4ccc(F)cc4Cl)cc3F)ccnc2cc1OCCCN1CCC(C)CC1
IC50 (A549): 190 nM | IC50 [1]: 530 nM | IC50 (MDA-MB-231): 1500 nM | IC50 (PBL): 79500 nM | IC50 (HT-29 [2]): 440 nM

Structure (SMILES): COc1cc2c(Oc3ccc(NC(=S)N/N=C/c4ccc(Cl)cc4)cc3F)ccnc2cc1OCCCN1CCCCC1
IC50 [1]: 500 nM | IC50 (MDA-MB-231): 1300 nM | IC50 (HT-29 [2]): 190 nM

Structure (SMILES): COc1cc2c(Oc3ccc(NC(=O)N/N=C/c4ccc(C(F)(F)F)cc4)cc3F)ccnc2cc1OCCCN1CCCC1
IC50 (A549): 790 nM | IC50 [1]: 1300 nM | IC50 (MDA-MB-231): 1800 nM | IC50 (HT-29 [2]): 810 nM

Structure (SMILES): COc1ccc(/C=N/NC(=O)Nc2ccc(Oc3ccnc4cc(OCCCN5CCC(C)CC5)c(OC)cc34)c(F)c2)cc1
IC50 (A549): 430 nM | IC50 [1]: 470 nM | IC50 (MDA-MB-231): 1000 nM | IC50 (PBL): 23000 nM | IC50 (HT-29 [2]): 610 nM

Structure (SMILES): C=CCc1cccc(/C=N/NC(=O)Nc2ccc(Oc3ccnc4cc(OCCCN5CCCCC5)c(OC)cc34)c(F)c2)c1OC
IC50 (A549): 250 nM | IC50 [1]: 670 nM | IC50 (MDA-MB-231): 790 nM | IC50 (HT-29 [2]): 460 nM

Structure (SMILES): COc1cc2c(Oc3ccc(NC(=O)N/N=C/c4ccc(OC(F)(F)F)cc4)cc3F)ccnc2cc1OCCCN1CCCCC1
IC50 (A549): 590 nM | IC50 [1]: 630 nM | IC50 (MDA-MB-231): 820 nM | IC50 (HT-29 [2]): 510 nM

Structure (SMILES): COc1cc2c(Oc3ccc(NC(=O)N/N=C/c4ccc(N(C)C)cc4)cc3F)ccnc2cc1OCCCN1CCCCC1
IC50 [1]: 870 nM | IC50 (MDA-MB-231): 1400 nM | IC50 (HT-29 [2]): 1000 nM

Structure (SMILES): COc1cc2c(Oc3ccc(NC(=O)N/N=C/c4ccc([N+](=O)[O-])cc4)cc3F)ccnc2cc1OCCCN1CCOCC1
IC50 [1]: 750 nM | IC50 (MDA-MB-231): 1700 nM | IC50 (HT-29 [2]): 710 nM

Cmax (Mus musculus [3]): 87 ng/mL | Tmax (Mus musculus [4]): 12 h | AUC (Mus musculus [5]): 7340 ng·h/mL | Vd/F [6]: 107 L/kg | MRT inf [7]: 24.3 h | t1/2 (Mus musculus [8]): 13.48 h
Structure (SMILES): COc1cc2c(Oc3ccc(NC(=S)N/N=C/c4ccccc4)cc3F)ccnc2cc1OCCCN1CCCCC1
IC50 (A549): 330 nM | IC50 [1]: 710 nM | IC50 (MDA-MB-231): 1200 nM | IC50 (PBL): 78400 nM | IC50 (HT-29 [2]): 210 nM

Structure (SMILES): COc1cc2c(Oc3ccc(NC(=O)N/N=C/c4ccncc4)cc3F)ccnc2cc1OCCCN1CCCCC1
IC50 (A549): 840 nM | IC50 [1]: 980 nM | IC50 (MDA-MB-231): 1400 nM | IC50 (HT-29 [2]): 940 nM

Structure (SMILES): COc1cc2c(Oc3ccc(NC(=O)N/N=C/c4ccc(C(F)(F)F)cc4)cc3F)ccnc2cc1OCCCN1CCC(C)CC1
IC50 (A549): 650 nM | IC50 [1]: 1000 nM | IC50 (MDA-MB-231): 1300 nM | IC50 (HT-29 [2]): 740 nM

Structure (SMILES): COc1cc2c(Oc3ccc(NC(=O)N/N=C/c4ccc(Cl)cc4Cl)cc3F)ccnc2cc1OCCCN1CCC(C)CC1
IC50 [1]: 350 nM | IC50 (MDA-MB-231): 910 nM | IC50 (HT-29 [2]): 470 nM

Cmax (Mus musculus [3]): 73 ng/mL | Tmax (Mus musculus [4]): 7.33 h | AUC (Mus musculus [5]): 1210 ng·h/mL | Vd/F [6]: 346 L/kg | MRT inf [7]: 14.8 h | t1/2 (Mus musculus [8]): 5.07 h
Structure (SMILES): COc1cc2c(Oc3ccc(/C=N/NC(=O)Nc4ccc(F)cc4Br)cc3F)ccnc2cc1OCCCN1CCCCC1
IC50 (A549): 98 nM | IC50 [1]: 140 nM | IC50 (MDA-MB-231): 1000 nM | IC50 (PBL): 36400 nM | IC50 (HT-29 [2]): 110 nM

Structure (SMILES): COc1cc2c(Oc3ccc(NC(=O)N/N=C/c4ccc([N+](=O)[O-])cc4)cc3F)ccnc2cc1OCCCN1CCCC1
IC50 (A549): 460 nM | IC50 [1]: 470 nM | IC50 (MDA-MB-231): 970 nM | IC50 (HT-29 [2]): 310 nM

Structure (SMILES): COc1cc2c(Oc3ccc(NC(=O)N/N=C/c4ccc(Cl)cc4Cl)cc3F)ccnc2cc1OCCCN1CCCCC1
IC50 [1]: 460 nM | IC50 (MDA-MB-231): 750 nM | IC50 (HT-29 [2]): 370 nM

Structure (SMILES): COc1cc2c(Oc3ccc(/C=N/NC(=O)Nc4ccccc4)cc3F)ccnc2cc1OCCCN1CCCCC1
IC50 (A549): 280 nM | IC50 [1]: 180 nM | IC50 (MDA-MB-231): 1200 nM | IC50 (PBL): 25500 nM | IC50 (HT-29 [2]): 190 nM

Structure (SMILES): C=CCc1cccc(/C=N/NC(=O)CN2CCN(Cc3ccccc3)CC2)c1O [PAC-1]
IC50 [1]: 820 nM | IC50 (PBL): 124000 nM

Structure (SMILES): COc1cc2c(Oc3ccc(NC(=S)N/N=C/c4ccc(F)c(F)c4)cc3F)ccnc2cc1OCCCN1CCCCC1
IC50 [1]: 740 nM | IC50 (MDA-MB-231): 1400 nM | IC50 (HT-29 [2]): 610 nM

Structure (SMILES): COc1cc2c(Oc3ccc(/C=N/NC(=O)Nc4ccc(F)c(F)c4)cc3F)ccnc2cc1OCCCN1CCCCC1
IC50 [1]: 320 nM | IC50 (MDA-MB-231): 960 nM | IC50 (HT-29 [2]): 490 nM

Structure (SMILES): COc1cc2c(Oc3ccc(NC(=O)N/N=C/c4ccc([N+](=O)[O-])cc4)cc3F)ccnc2cc1OCCCN1CCC(C)CC1
IC50 (A549): 380 nM | IC50 [1]: 420 nM | IC50 (MDA-MB-231): 870 nM | IC50 (HT-29 [2]): 230 nM

Structure (SMILES): COc1cc2c(Oc3ccc(NC(=O)C4(C(=O)Nc5ccc(F)cc5)CC4)cc3F)ccnc2cc1OCCCN1CCOCC1 [FORETINIB]
Activity (Mus musculus [9]): Non-toxic | Activity (HT-29 [10]): 73.68% | Activity [11]: 78.23% | Activity (Mus musculus [12]): Non-toxic

Structure (SMILES): COc1cc2c(Oc3ccc(NC(=S)N/N=C/c4ccc(F)cc4Cl)cc3F)ccnc2cc1OCCCN1CCCCC1
IC50 (A549): 230 nM | IC50 [1]: 820 nM | IC50 (MDA-MB-231): 1400 nM | IC50 (PBL): 34100 nM | IC50 (HT-29 [2]): 420 nM

Reference: ChEMBL document CHEMBL3763046 (Bioorg Med Chem, 2016)
